Measurements from PMC12144862, “Structural Basis of Sequential Enantioselective Epoxidation by a Flavin-Dependent Monooxygenase in Lasalocid A Biosynthesis” (Angewandte Chemie (International ed. in English), 2025).

Biological target: T1, Lsd18 (Streptomyces lasalocidi, UniProt B5M9L6)
T1 construct: recombinant Lsd18 with FAD; two molecules in the asymmetric unit
Assay: LC-MS epoxidation assay
Format: biochemical
Settings: forms mono- and bisepoxide

T1 sequence (B5M9L6 whole entry): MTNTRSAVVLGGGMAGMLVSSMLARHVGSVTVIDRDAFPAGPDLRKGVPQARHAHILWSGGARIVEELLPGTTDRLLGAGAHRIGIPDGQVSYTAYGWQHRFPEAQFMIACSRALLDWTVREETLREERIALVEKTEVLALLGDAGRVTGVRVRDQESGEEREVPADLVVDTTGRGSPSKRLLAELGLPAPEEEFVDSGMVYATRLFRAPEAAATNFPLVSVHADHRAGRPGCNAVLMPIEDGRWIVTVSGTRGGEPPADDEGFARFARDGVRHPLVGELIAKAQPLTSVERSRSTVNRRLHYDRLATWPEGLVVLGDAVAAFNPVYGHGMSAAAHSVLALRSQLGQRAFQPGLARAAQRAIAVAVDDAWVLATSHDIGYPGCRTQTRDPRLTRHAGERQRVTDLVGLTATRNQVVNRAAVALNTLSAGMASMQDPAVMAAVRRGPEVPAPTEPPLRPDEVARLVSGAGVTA

CC(=O)OC/C=C(\C)CC/C=C(\C)CCC=C(C)C [farnesyl acetate]
LC-MS epoxidation assay: Lsd18 transforms farnesyl acetate, a natural sesquiterpene, into a bisepoxide
